Measurements as given in patent publication US20240165112A1, “THERAPY FOR THE TREATMENT OF CANCER” (Bristol-Myers Squibb Company, priority 2022, published 2024).

Key:
Experiment in all cases: 3D clonogenic assay in patient derived organoids
Format in all cases: cell-based, human
Settings in all cases: 8 to 13 days
[1] = system: CXF1256 organoid, colon cancer
[2] = system: CXF2129 organoid, colon cancer
[3] = system: MAXFTN449 organoid, breast cancer (triple negative)
[4] = system: LXFE2478 organoid, NSCLC (squamous subtype)
[5] = system: PAXF1657 organoid, pancreatic cancer

Compound: C[C@@H]1CC[C@@H](Nc2nc(NC(C)(C)C)ncc2C(N)=O)C[C@H]1O [Compound 1, 2-(tert-butylamino)-4-((1R,3R,4R)-3-hydroxy-4-methylcyclohexylamino)-pyrimidine-5-carboxamide]
- % Reduction in Colony Formation with Compound 1 compared with DMSO, Mean ([1]; Compound 1, 5 μM): 90%
- % Reduction in Colony Formation with Compound 1 compared with DMSO, Mean ([1]; Compound 1, 20 μM): 92%
- % Reduction in Colony Formation with Compound 1 compared with DMSO, Mean ([2]; Compound 1, 5 μM): 56%
- % Reduction in Colony Formation with Compound 1 compared with DMSO, Mean ([2]; Compound 1, 20 μM): 49%
- % Reduction in Colony Formation with Compound 1 compared with DMSO, Mean ([3]; Compound 1, 5 μM): 56%
- % Reduction in Colony Formation with Compound 1 compared with DMSO, Mean ([3]; Compound 1, 20 μM): 54%
- % Reduction in Colony Formation with Compound 1 compared with DMSO, Mean ([4]; Compound 1, 5 μM): 39%
- % Reduction in Colony Formation with Compound 1 compared with DMSO, Mean ([4]; Compound 1, 20 μM): 28%
- % Reduction in Colony Formation with Compound 1 compared with DMSO, Mean ([5]; Compound 1, 5 μM): 31%
- % Reduction in Colony Formation with Compound 1 compared with DMSO, Mean ([5]; Compound 1, 20 μM): 27%
